Measurements reported in PubChem BioAssay (NCI).
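Exposure lasted 48 hours, with cells grown in 96-well plates and compounds tested at five concentrations. GI50 is the concentration that inhibits growth by half. Definition used: TGI = concentration required for complete inhibition of growth.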

Experiments:
Test in all cases: DTP human tumour cell line panel, 48 h
RXF 393 renal = system: RXF 393 renal
HCT-15 colon = system: HCT-15 colon
SF-539 CNS = system: SF-539 CNS
SK-MEL-28 melanoma = system: SK-MEL-28 melanoma
A498 renal = system: A498 renal
NCI-H23 lung = system: NCI-H23 lung
RPMI-8226 leukemia = system: RPMI-8226 leukemia
SK-MEL-2 melanoma = system: SK-MEL-2 melanoma
KM12 colon = system: KM12 colon

Structure (SMILES) | TGI (RXF 393 renal) | TGI (HCT-15 colon) | TGI (SF-539 CNS) | TGI (SK-MEL-28 melanoma) | TGI (A498 renal) | TGI (NCI-H23 lung) | TGI (RPMI-8226 leukemia) | TGI (SK-MEL-2 melanoma) | TGI (KM12 colon) | GI50 (RXF 393 renal) | GI50 (KM12 colon) | GI50 (HCT-15 colon) | GI50 (SF-539 CNS) | GI50 (SK-MEL-28 melanoma) | GI50 (A498 renal) | GI50 (RPMI-8226 leukemia) | GI50 (SK-MEL-2 melanoma)
CC(=O)NC1C(OCc2ccccc2)OC(COC(=O)CCCCCNc2ccc([N+](=O)[O-])c3[nH]c4ccc(O)cc4c(=O)c23)C(O)C1OC(C)C(=O)N[C@@H](C)C(=O)N[C@H](CCC(=O)OCc1ccccc1)C(N)=O (some centres undefined) | 3.26 µM | 3.67 µM | 15.4 µM | 6.9 µM | 7.29 µM | 3.14 µM | 3.57 µM | 3.98 µM | – | – | – | – | – | – | – | – | –
C/C(=N\NS(=O)(=O)c1ccc(C)cc1)c1c(O)cc(C)oc1=O | – | > 100 µM | > 100 µM | > 100 µM | > 100 µM | > 100 µM | – | > 100 µM | > 100 µM | – | – | – | – | – | – | – | –
NC1=NC(c2ccccc2)CC(c2cc(Cl)cc(Br)c2O)=N1 (centres undefined) | 17 µM | 31.1 µM | 25.4 µM | 28.9 µM | 35.7 µM | 26 µM | 33.6 µM | 18.6 µM | 26.1 µM | – | – | – | – | – | – | – | –
COc1cc2ccc(/C(C)=N/OC(C)=O)cc2cc1OC | > 100 µM | > 100 µM | > 100 µM | > 100 µM | 76.9 µM | > 100 µM | > 100 µM | > 100 µM | > 100 µM | – | – | – | – | – | – | – | –
C=CCCC(C)N(C(=O)OC(C)(C)C)S(=O)(=O)c1ccc(C)cc1 (centres undefined) | – | > 100 µM | > 100 µM | > 100 µM | – | > 100 µM | > 100 µM | > 100 µM | > 100 µM | – | – | – | – | – | – | – | –
CCCC1C(=O)C(CC)Cc2c(OC)ccc(OC)c21 (centres undefined) | > 100 µM | > 100 µM | > 100 µM | > 100 µM | – | – | > 100 µM | > 100 µM | > 100 µM | – | – | – | – | – | – | – | –
C[C@]12CC(C#N)C(=O)C(O)=C1CC[C@@H]1C2CC[C@@]2(C)C1CC[C@@H]2O (some centres undefined) | 44.4 µM | > 100 µM | > 100 µM | > 100 µM | 28.9 µM | > 100 µM | > 100 µM | > 100 µM | > 100 µM | – | – | – | – | – | – | – | –
O=C(O)CN(c1ccccc1)S(=O)(=O)c1ccc(Cl)cc1 | > 100 µM | > 100 µM | > 100 µM | > 100 µM | > 100 µM | > 100 µM | > 100 µM | > 100 µM | – | – | – | – | – | – | – | – | –
S=P(c1ccccc1)(c1ccccc1)C1(C2(P(=S)(c3ccccc3)c3ccccc3)CC2)CC1 | > 100 µM | > 100 µM | > 100 µM | > 100 µM | – | > 100 µM | – | > 100 µM | > 100 µM | – | – | – | – | – | – | – | –
CCN(CC)CCOC(=O)/C(=C/c1ccc(OC)cc1)c1cc(OC)c(OC)c(OC)c1 | 5 µM | > 100 µM | 10.8 µM | > 100 µM | 8.64 µM | – | 52.5 µM | – | 16 µM | – | – | – | – | – | – | – | –
CC1=C(/C=C/C2=CC(=C\C(=O)O)/CC(C3=C(C)CCCC3(C)C)C2)C(C)(C)CCC1 (centres undefined) | 22.6 µM | – | 30.6 µM | 29.5 µM | 28.7 µM | 27.6 µM | 27 µM | 23.5 µM | 24.1 µM | – | – | – | – | – | – | – | –
C[C@@H](NC1CCC[C@@H]1O)c1ccccc1 (some centres undefined) | > 100 µM | > 100 µM | – | > 100 µM | – | – | > 100 µM | > 100 µM | > 100 µM | – | – | – | – | – | – | – | –
Cc1ccc(C(=O)CCC2C(=O)CC(C)(C)CC2=O)cc1 | > 100 µM | > 100 µM | > 100 µM | > 100 µM | – | > 100 µM | – | > 100 µM | > 100 µM | – | – | – | – | – | – | – | –
O=C(N/C(=C\c1ccc([N+](=O)[O-])cc1)c1nc2ccc(Cl)cc2[nH]1)c1ccccc1 | 58.3 µM | 31.2 µM | 40.7 µM | 83.7 µM | – | 44.6 µM | – | 48.1 µM | 61.4 µM | – | – | – | – | – | – | – | –
CC1Cc2c(N)nc(N3CCOCC3)nc2NC1=O (centres undefined) | > 100 µM | > 100 µM | > 100 µM | > 100 µM | – | > 100 µM | > 100 µM | > 100 µM | > 100 µM | – | – | – | – | – | – | – | –
CC(=O)O[C@H]1CCC2[C@@H]3CCC4Nc5c(cnn5-c5ccccc5)C[C@]4(C)C3CC[C@@]21C (some centres undefined) | 24.6 µM | 47.8 µM | 54.9 µM | – | > 100 µM | 21.2 µM | 46.2 µM | 35.8 µM | 37.8 µM | – | – | – | – | – | – | – | –
O=C1NC(=O)C(=O)C(c2nc3ccccc3s2)C1=O | > 100 µM | > 100 µM | > 100 µM | > 100 µM | > 100 µM | > 100 µM | – | > 100 µM | > 100 µM | – | – | – | – | – | – | – | –
O=C(COc1ccc(Cl)cc1)N1N=C(c2ccc([N+](=O)[O-])o2)CC1(O)c1ccccc1 (centres undefined) | – | 18.5 µM | 26.9 µM | 25.1 µM | – | 6.73 µM | 18.3 µM | 21 µM | 27.7 µM | – | – | – | – | – | – | – | –
CC(Oc1ccc(OCC2CCCCC2)cc1)C(=O)O (centres undefined) | – | > 100 µM | > 100 µM | > 100 µM | – | > 100 µM | – | > 100 µM | > 100 µM | – | – | – | – | – | – | – | –
Cc1ccc2c(N/N=C\c3ccco3)cc(C)nc2n1 | 17.1 µM | 12 µM | 3.74 µM | 5.35 µM | 23.9 µM | – | 7.06 µM | 8.77 µM | 17.9 µM | 4.53 µM | 4.98 µM | 2.89 µM | 2.01 µM | 2.11 µM | 11 µM | 2.48 µM | 3.05 µM
